Patent US11364285B2, “Methods, compositions, and molecular targets that exploit synergies and symbioses in the termite gut” (priority 2016, dated 2022)

Key:
amidohydrolase 2 gene = experiment: qPCR of amidohydrolase 2 expression after kanamycin treatment and B. bassiana challenge; type: in vivo, R. flavipes; conditions: 5% kanamycin 48 h, then B. bassiana; compared to water treated controls
Excerpt: To investigate whether symbiont removal reduced amidohydrolase expression, groups of 10 workers from three independent colonies were subjected to a treatment of 5% kanamycin (controls received water only) for 48-hours and subsequently challenged with a low dose of B. bassiana conidia (as above). 5% Kanamycin was used for bacterial symbiont removal based on extensive preliminary research. These bioassays were held for 48-hours before termite guts were dissected for RNA extraction. cDNA was synthesized using the Bioline SensiFast cDNA Synthesis kit using 1 μg total RNA as template. qPCR was performed using the SensiFast no ROX SYBR Master Mix (Bioline) and amidohydrolase 2 gene specific primers as well as Actin 5C as a reference gene (see Table S.2 of the Peterson & Scharf Article).

[1] = test system: termite workers challenged with B. bassiana; experiment: Post-hoc bioassay of termite susceptibility to B. bassiana after kanamycin; type: in vivo, R. flavipes
Description: Similarly, post-hoc bioassays were performed to determine if 5% kanamycin treatment was sufficient to increase termite susceptibility to B. bassiana. As above, groups of 10 termites were treated with 5% kanamycin or water (controls) for 48-hours, and then inoculated with a low dose of B. bassiana conidia suspended in 0.5% Tween-20 or a blank of 0.5% Tween-20 solution (controls). All together, these four groups allowed the investigators to account for any baseline mortality caused by antibiotic treatment. These bioassays were held for 7 days before scoring survivorship.

Reticulitermes flavipes = experiment: Termite behavior and pathology observed in the bioassays (grooming, tunneling, light repellency); type: in vivo; conditions: sublethal concentration
[2] = test system: hindgut protist symbiont populations; experiment: Protist counts after imidacloprid treatment; type: in vivo, R. flavipes; conditions: 48 hr imidacloprid exposure
Description: To determine if imidacloprid indirectly or directly impacted protist and bacteria gut symbiont populations, post-hoc tests were performed using multiple independent termite colonies. Protist counts were made using five laboratory colonies as previously described. Bacterial CFU counts were done via aerobic culturing using two laboratory colonies; one that had been in the lab for >2 years (“colony 1”) and one collected from the field 1 month earlier (“colony 2”). […] Whole guts dissected from individual termites were sonicated in 250 μL of PBS, serially diluted, and spotted (2 μL) onto nutrient agar plates.

[3] = test system: aerobic, culturable bacterial community from the R. flavipes digestive tract; experiment: Imidacloprid-loaded discs on plated gut homogenates; type: cell-based; conditions: concentrations of 1-1000-fold higher than used in the feeding assays
Description: (§1) After incubation at 26° C. for 24 hours, plates were examined—spots producing 3-10 CFUs were used to estimate the total number of aerobic culturable bacteria per termite. In addition, dilutions of gut homogenates were directly plated onto nutrient agar; discs loaded with serial dilutions of imidacloprid were added to these plates to examine its direct impact on the culturable bacteria.

[4] = test system: gut bacteria (16S rDNA abundance); experiment: 16S qPCR of relative bacterial DNA abundance in guts; type: in vivo, R. flavipes; conditions: 48 hours exposure; two colonies
Description: as §1
DNA was isolated from termite whole guts following control or imidacloprid treatments in bioassays using the Epicentre Yeast DNA extraction kit, including RNase treatment (Madison, Wis.). Following isolation, DNA samples were subjected to phenol-chloroform cleanup and concentrated using sodium acetate-ethanol precipitation. qPCR reactions were performed in triplicate with SensiFast SYBR No ROX kit (Bioline; Taunton, Mass.), 50 ng of sample DNA, nuclease-free water, and degenerate 16S rDNA primers. Primers amplified a 291 bp fragment containing the V4 hypervariable region of the 16S rRNA gene. Host DNA was quantified using primers specific to an apparent single-copy host gene, Actin 5C-1. Data were normalized to Actin 5C-1 to determine the relative abundance of 16S amplicons in the control and imidacloprid-treated DNA preparations.

[5] = test system: host gut and protist/symbiont genes; type: in vivo
Description: After two days, a subset of ten termites was removed from each of the replicate colony treatments (20 total samples), cold-immobilized, surface-sterilized by a serial rinse in 0.3% sodium hypochlorite (1×) and sterilized water (2×), and dissected on Parafilm to collect digestive tracts, including salivary glands. Digestive tracts were transferred into RLA Lysis Buffer (Promega, Fitchburg, Wis., USA) and stored at −70° C. until RNA isolation. RNA extraction and cDNA synthesis was performed.
Experiments were designed after MIAME guidelines. A type II microarray design was used with a common-reference strategy. The common reference consisted of a normalized blend of all RNA samples included in the experiment. This common reference was co-hybridized against each replicate sample on single microarrays. Dye swaps were performed between replicate samples and references to check for potential dye impacts on spot intensity. […] Specifically, such microarrays contained a mix of ˜14,500 cDNA oligonucleotides representing 10,500 host gut and protist/symbiont genes, including stereotypical immune response genes, thereby providing simultaneous assessments of host and protist gene expression. Reported analyses consisted of five pairwise comparisons to a common control as denoted by the numbers 1-5 in FIG. 4. More specific microarray data are provided in S15-S20 Tables of Sen et al. 2015, PLoS ONE 10(4): e0123391 (the “Sen Article”), which is hereby incorporated by reference herein in its entirety. […] Genbank accession numbers for sequences at each microarray position are provided in S21-S23 Tables of the Sen Article.
Before comparative analysis, the individual signal intensity values obtained from the microarray probes were log-transformed (using 2 as the base) and normalized among all individual samples included in the study. […] After the data were normalized, t-tests were used to make probe-by-probe comparisons among treatments. In each comparison, a p-value and fold change were computed for all microarray loci. In addition to p-values, q-values were computed. While the p-value measures the minimum statistical false-positive rate incurred when setting a threshold for test significance, the q-value measures the minimum false-discovery rate incurred when calling that test significant.
The generated contigs and the remaining orphan sequences were used for further analyses using the program BLAST2GO for identification and annotation. By using the inbuilt BLASTx algorithm, these sequences were used as queries in BLASTx searches against the Genbank non-redundant (nr) database with an e-value cut-off of ≤1e-03. The putative identification, annotation, and Gene Ontology (GO) terms for the sequences also were obtained through BLAST2GO. KEGG analyses were also performed.

[6] = gut, 2 days post-exposure, vs solvent control
[7] = passing array positions, before contig formation

Row | SMILES | Reduction of amidohydrolase 2 gene expression in pathogen challenged termites (amidohydrolase 2 gene) [×] | Increase in termite susceptibility to B. bassiana ([1]; 5% kanamycin 48 h, normalized mortality at 7 days post inoculation) [×] | Increase in termite worker susceptibility to B. bassiana ([1]; 5% kanamycin, 7 days) [fold] | Termite behaviors (tunneling, grooming, light repellency) (Reticulitermes flavipes) | Reduction of representative protist groups [2] | Treated termite colonies with reduced protist populations [2] | Growth suppression of culturable gut bacteria by imidacloprid-impregnated paper discs [3] | Effect on total bacterial DNA abundance (16S PCR signals) [4] | Effect on expression of innate immune / antimicrobial genes ([5]; gut, 2 days) | Differentially expressed contigs and singletons, Overall [5, 6] | Downregulated contigs and singletons, Host [5, 6] | Downregulated contigs and singletons, Mixed [5, 6] | Downregulated contigs and singletons, Symbiont [5, 6] | Downregulated contigs and singletons, Totals [5, 6] | Upregulated contigs and singletons, Mixed [5, 6] | Upregulated contigs and singletons, Symbiont [5, 6] | Upregulated contigs and singletons, Totals [5, 6] | Downregulated array positions [5, 7] | Upregulated transcripts in the array (array positions) [5, 7]
1 | NC[C@H]1O[C@H](O[C@H]2[C@H](O)[C@@H](O[C@H]3O[C@H](CO)[C@@H](O)[C@H](N)[C@H]3O)[C@H](N)C[C@@H]2N)[C@H](O)[C@@H](O)[C@@H]1O [kanamycin] | ~5 | 3 | 3 |  |  |  |  |  |  |  |  |  |  |  |  |  |  |  | 
2 | O=[N+]([O-])NC1=NCCN1Cc1ccc(Cl)nc1 [I, imidacloprid] |  |  |  | neither produced tunnels nor were repelled by light | 25-50% | 5 of 6 | failed to suppress the growth | did not detect any impact | failed to substantially alter | 393 | 8 | 3 | 205 | 216 | 1 | 19 | 177 | 504 | 260
